Experimental data taken from US12268727B2, “Bioactive polypeptides for improvements in plant protection, growth and productivity” (priority 2017, dated 2025).

Tested on: soybean
Test: Soybean pod number after foliar application
Type: in vivo
Conditions: 300 nM at R1 and 17 days later, counted after 31 days
Protocol: Plants were then placed under a long day conditions consisting of 16/8 light/day cycle and temperature 21-26° C. to promote early flowering and speed up progression to the reproductive (R) growth stage. When the soybean plants had reached the R1 stage of development a foliar application containing the Gm.RHPP (SEQ ID NO: 600) polypeptide at a final concentration of 300 nM and a non-ionic surfactant of 0.10% (NIS90:10; Precision Laboratories, LLC) was applied to soybean. Soybean plants were provided with the Gm.RHPP formulation and a non-ionic surfactant only control. Both the Gm.RHPP and the non-ionic surfactant control treatment were applied to 18 plants per treatment. Six equidistant sprays were provided approximately 15 cm above per each plant for complete coverage of foliage. After treatment application, the R1 soybean plants were returned to the control environmental growth room. […] Soybean pods of more than 1 mm in length were counted on the plants after 31 days from the first foliar spray treatment applications. […] A p value (p<0.05 for significance) was calculated from a paired T-test comparison between pod number from plants that received the Gm.RHPP and the non-ionic surfactant control treatment applications.

GGIRAAPTGNER (Glycine max) [RHPP, Root Hair Promoting Peptide from Glycine max]
pod count vs non-ionic surfactant control: approximately doubled pod count
